Measurements reported in patent publication US9517244B2, “Therapeutic combinations for use in neoplasia” (University of Florida Research Foundation, Inc., priority 2011, dated 2016).

Legend:
[1] = test system: human parental cancer cells; assay: cell growth inhibition of parental cancer cells; type: cell-based; settings: Homo sapiens, 72 h
Experimental: Cells were treated with 1.25 μM of NSC-30049 and 1.25 μM of OPT either alone or in combination for 72 h. Data are mean±SD of triplicate experiments. […] Cells were treated with 1.25 μM of NSC-30049 and 1.25 μM of OPT either alone or in combination for 72 h. Fold change in gene expression values is shown as mean±SD of three experiments and are normalized to GAPDH gene expression.
The effect of administration of NSC-30049 in combination with oxaliplatin (OPT) was also examined in human parental cancer cells and colon cancer stem cells (FIG. 9A). Cells were treated with 1.25 μM of NSC-30049 and […] of OPT either alone or in combination for 72 h. Cell growth inhibition was assayed. Data presented are mean±SD of triplicate experiments.

[2] = test system: CD133, Nanog, Oct4, Sox2 expression in colon cancer stem cells; assay: qRT-PCR of self-renewal marker genes in colon cancer stem cells; type: cell-based, human; settings: 1.25 μM NSC-30049 + 1.25 μM OPT, 72 h, compared to either alone
Experimental: (§1) Cells were treated with 1.25 μM of NSC-30049 and 1.25 μM of OPT either alone or in combination for 72 h. Data are mean±SD of triplicate experiments. FIG. 9B depicts the inhibition in expression of self-renewal marker genes of colon cancer stem cells, qRT-PCR data of CD133+, Oct4, Sox2 and Nanog gene expression levels of parental cancer cells and colon cancer stem cells was obtained. Cells were treated with 1.25 μM of NSC-30049 and 1.25 μM of OPT either alone or in combination for 72 h. Fold change in gene expression values is shown as mean±SD of three experiments and are normalized to GAPDH gene expression.
(§2) Without being bound to a particular theory, the effect of administration of NSC-30049 in combination with oxaliplatin (OPT) on the expression of self-renewal marker genes of colon cancer stem cells was analyzed. Self-renewal marker genes are highly expressed in colon cancer stem cells compared to human parental cancer cells. qRT-PCR data of CD133+, Oct4, Sox2 and Nanog gene expression levels of parental cancer cells and colon cancer stem cells was obtained (FIG. 9B). Cells were treated with 1.25 μM of NSC-30049 and 1.25 μM of OPT either alone or in combination for 72 h. The fold change in gene expression values is shown as mean±SD of three experiments and were normalized to GAPDH gene expression. […]

[3] = test system: T98; assay: MTT assay, brain cancer cell line; type: cell-based; settings: Homo sapiens, T98, 120 h, single agent, read-out: IC50 of NSC-30049
Experimental: (§3) The use of NSC-30049 as a chemopreventive agent for the treatment of brain cancer was also tested. NSC-30049 in combination with temozolomide was administered to brain cancer cell lines, including U118, U138, U87MG, A172, and T98 cell lines (Table 6). Cells were pretreated with the indicated concentrations of NSC-30049 followed by TMZ for 120 h. After treatment, cells were processed for the determination of viability by cell proliferation assay (MTT assay). The data from the graph was used for the determination of IC50, which is presented as the mean±SE of three different estimations. Increasing the concentration of NSC-30049 decreased the IC50 of temozolomide for all cell lines tested, regardless of whether they were MMR proficient or deficient.

[4] = test system: A172; assay: MTT assay, brain cancer cell line; type: cell-based; settings: Homo sapiens, A 172, 120 h, single agent, read-out: IC50 of NSC-30049
Experimental: as §3

[5] = test system: U87MG; assay: MTT assay, brain cancer cell line; type: cell-based; settings: Homo sapiens, U-87 MG, 120 h, single agent, read-out: IC50 of NSC-30049
Experimental: as §3

[6] = test system: U138; assay: MTT assay, brain cancer cell line; type: cell-based; settings: 120 h, single agent, read-out: IC50 of NSC-30049
Experimental: as §3

[7] = test system: U118; assay: MTT assay, brain cancer cell line; type: cell-based; settings: 120 h, single agent, read-out: IC50 of NSC-30049
Experimental: as §3

[8] = target: Pol-β (Homo sapiens, UniProt P06746); assay: Pol-β-directed strand-displacement synthesis, reconstituted in vitro assay; type: biochemical; settings: 0.5, 1, 2.5 and 5 μM
Experimental: Lanes 4-7 contained increasing concentrations of NSC-30049 (0.5, 1, 2.5, and 5 μM, respectively). The arrows indicate the positions of the 63-mer substrate and the products. […] Data are representative of three different experiments.

[9] = test system: CD133, Nanog, Oct4, Sox2 expression in human parental cancer cells; assay: qRT-PCR of self-renewal marker genes in parental cancer cells; type: cell-based; settings: 1.25 μM NSC-30049 + 1.25 μM OPT, 72 h, compared to either alone
Experimental: as §1, §2

[10] = test system: PANC1; assay: MTT assay, pancreatic cancer cell line; type: cell-based, human; settings: Homo sapiens, PANC-1; PANC1 (dFdC-resistant); single agent; 72 h; read-out: IC50
[11] = test system: Aldh1a1 and Aldh1a7 expression in GBM-L0 stem cells; assay: qRT-PCR of aldehyde dehydrogenase genes in GBM-L0 stem cells; type: cell-based; settings: 36 h
Experimental: Cells were pretreated with 2.5 μM of NSC30049 or 10 or 100 μM TMZ alone or in combination with NSC-30049 for 36 h. Then, total RNA was isolated and processed for gRT-PCR. Data presented are the mean±SE of three different measurements. […] Treatment with NSC-30049 or TMZ reduced the expression of aldehyde dehydrogenase gene Aldh1a7 in GBM-LO stem cell line in vitro, but not treatment with NSC-30049 and TMZ. Cells were pretreated with 2.5 μM of NSC30049 or 10 or 100 μM of TMZ alone or in combination with NSC-30049 for 36 h. Then, total RNA was isolated and processed for qRT-PCR. Data presented are the mean±SE of three different measurements.
Without being bound to a particular theory, the effect of administration of NSC-30049 in combination with temozolomide (TMZ) on the expression of self-renewal marker genes of […] was analyzed. Self-renewal marker genes are highly expressed in colon cancer stem cells compared to human parental cancer cells. qRT-PCR data of CD133+, Oct4, Sox2 and Nanog gene expression levels of GBM-L0 stem cells was obtained (FIG. 14A). Cells were pretreated with 2.5 μM of NSC30049 or 10 or 100 μM of TMZ alone or in combination with NSC-30049 for 36 h. Then, total RNA was isolated and processed for qRT-PCR. Data presented are the mean±SE of three different measurements. […]

Q: Which results are given for `ClCC=CC[N+]12CN3CN(CN(C3)C1)C2` [NSC-30049, 1-(4-Chloro-2-butenyl)-1λ˜5˜,3,5,7-tetraazatricyclo[3.3.1.1˜3,7˜]decane]?
A: inhibition at 1.25 µM ([1]; 1.25 μM NSC-30049 in combination with 1.25 μM oxaliplatin): ~70%; inhibition at 1.25 µM ([1]; alone, 1.25 μM): ~20%; expression of CD133, Nanog, Oct4, and Sox2 [2]: significantly inhibited the expression of CD133, Nanog, Oct4, and Sox2; IC50 [3]: 10.1 ± 0.3 µM; IC50 [4]: 6.5 ± 0.3 µM; IC50 [5]: 5.6 ± 1 µM; IC50 [6]: 2.1 ± 0.1 µM; IC50 [7]: 2.6 ± 0.1 µM; effect on Pol-β-directed strand-displacement synthesis [8]: did not affect Pol-β-directed strand-displacement synthesis; expression of CD133, Nanog, Oct4, and Sox2 [9]: inhibited the expression of CD133, Nanog, Oct4, and Sox2 in human parental cancer cells; IC50 [10]: 5.12 ± 0.22 µM; expression of Aldh1a1 ([11]; 2.5 μM NSC-30049 + 10 or 100 μM TMZ): significantly inhibited the expression of Aldh1a1; expression of Aldh1a7 ([11]; agent alone): inhibited
